Assay results reported in article PMC5919655, “Practical spectrophotometric assay for the dapE-encoded N-succinyl-L,L-diaminopimelic acid desuccinylase, a potential antibiotic target” (PLoS ONE, 2018).
pIC50: −log10 of the molar value.

What was measured:
[1] = target: T1, succinyl-diaminopimelate desuccinylase (HiDapE) (Haemophilus influenzae, UniProt P44514); test: hydrolysis by purified HiDapE monitored at […] nm (kcat/Km); type: biochemical
T1 construct: gene dapE; recombinant HiDapE, His6-tag cleaved with TEV protease

[2] = target: T1, succinyl-diaminopimelate desuccinylase (HiDapE); test: ninhydrin-based assay of purified HiDapE with N6-methyl-L,L-SDAP substrate, […] nm; type: biochemical

T1 sequence (P44514 whole entry): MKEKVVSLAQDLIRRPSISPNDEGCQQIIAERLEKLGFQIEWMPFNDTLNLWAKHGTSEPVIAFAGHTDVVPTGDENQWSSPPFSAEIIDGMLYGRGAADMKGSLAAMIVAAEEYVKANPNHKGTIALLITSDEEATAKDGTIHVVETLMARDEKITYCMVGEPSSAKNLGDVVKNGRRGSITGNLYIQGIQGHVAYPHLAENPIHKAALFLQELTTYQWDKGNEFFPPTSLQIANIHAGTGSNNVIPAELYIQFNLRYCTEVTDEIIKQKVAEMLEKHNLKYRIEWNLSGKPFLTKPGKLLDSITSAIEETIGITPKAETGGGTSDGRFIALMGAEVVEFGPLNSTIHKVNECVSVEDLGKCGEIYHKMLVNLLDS

Row | Structure (SMILES) | hydrolysis by purified HiDapE monitored at 225 nm (kcat/Km) [1] | pIC50 [2]
1 | CN[C@@H](CCC[C@H](NC(=O)CCC(=O)O)C(=O)O)C(=O)O [1b, (2S,6S)-2-(3-Carboxypropanamido)-6-(methylamino)heptanedioic acid] | 3.87x 10^4 M^-1S^-1 | –
2 | OB(O)c1cccs1 [2-thiopheneboronic acid] | – | 3.95
3 | O=C(O)c1cccc(S)c1 [3-mercaptobenzoic acid] | – | 4.66
